Measured values as given in US7625875B2 (priority 2002, dated 2009).
“And” between values parts separate entries of the source, which are not always exact repeats. Equal values may be shown once. Read-outs that look alike come from different tables or passages of the source.

How the values were obtained:
HepG2 cells [1] = assay: Mitochondrial DNA content; format: cell-based, human; settings: for mtDNA/nuclear DNA (% of Control): 1 μM
Method: To assess the potential of mCyd to produce mitochondrial toxicity, several in vitro studies were conducted using the human hepatoma cell lines HepG2 or Huh7.
The significance of this finding is unclear, particularly since mCyd is unlikely to attain a plasma concentration of 50 μM in the clinic. For comparison, lactic acid production increases by 100% over control cells in cells treated with 10 μM FIAU (Cui L, Yoon, et al. J. Clin. Invest. 1995; 95:555-563).

HepG2 cells [2] = assay: Incorporation of drug into cellular RNA and DNA; settings: 10 μM [3H] drug, 30 hours
HepG2 cells [3] = assay: Transmission electron microscopy of mitochondrial ultrastructure; settings: 10 μM, 14 days
CVB-2 = assay: organism not typed; format: cell-based, Coxsackie B-2 virus
CVB-3 = format: cell-based, Coxsackievirus B-3
CVB-4 = format: cell-based, Coxsackievirus B-4
CVA-9 = format: cell-based, Coxsackievirus A-9
Sb-1 = assay: organism not typed; format: cell-based, Sabin type 1 poliomyelitis virus
REO-1 = assay: microbe, parasite or virus in culture; format: cell-based, double-stranded RNA Reovirus
[4] = test system: MT-4 human T-lymphocyte cells
[5] = test system: Vero 76, African green monkey kidney cells
BVDV = format: cell-based, bovine viral diarrhea virus
YFV = format: cell-based, yellow fever virus; settings: Tables 30b, 30k-30o
DENV 2 = assay: microbe, parasite or virus in culture; format: cell-based, dengue virus; settings: read-out: DENV 2
WNV = assay: microbe, parasite or virus in culture; format: cell-based, West Nile virus; settings: read-out: WNV
human DNA polymerase β = human DNA polymerase β (Homo sapiens, UniProt P06746); assay: Inhibition of human DNA polymerase β; format: biochemical
human DNA polymerase γ = molecular target: T1, human DNA polymerase γ (Homo sapiens, UniProt P54098); assay: biochemical
T1 sequence (P54098 1-1239): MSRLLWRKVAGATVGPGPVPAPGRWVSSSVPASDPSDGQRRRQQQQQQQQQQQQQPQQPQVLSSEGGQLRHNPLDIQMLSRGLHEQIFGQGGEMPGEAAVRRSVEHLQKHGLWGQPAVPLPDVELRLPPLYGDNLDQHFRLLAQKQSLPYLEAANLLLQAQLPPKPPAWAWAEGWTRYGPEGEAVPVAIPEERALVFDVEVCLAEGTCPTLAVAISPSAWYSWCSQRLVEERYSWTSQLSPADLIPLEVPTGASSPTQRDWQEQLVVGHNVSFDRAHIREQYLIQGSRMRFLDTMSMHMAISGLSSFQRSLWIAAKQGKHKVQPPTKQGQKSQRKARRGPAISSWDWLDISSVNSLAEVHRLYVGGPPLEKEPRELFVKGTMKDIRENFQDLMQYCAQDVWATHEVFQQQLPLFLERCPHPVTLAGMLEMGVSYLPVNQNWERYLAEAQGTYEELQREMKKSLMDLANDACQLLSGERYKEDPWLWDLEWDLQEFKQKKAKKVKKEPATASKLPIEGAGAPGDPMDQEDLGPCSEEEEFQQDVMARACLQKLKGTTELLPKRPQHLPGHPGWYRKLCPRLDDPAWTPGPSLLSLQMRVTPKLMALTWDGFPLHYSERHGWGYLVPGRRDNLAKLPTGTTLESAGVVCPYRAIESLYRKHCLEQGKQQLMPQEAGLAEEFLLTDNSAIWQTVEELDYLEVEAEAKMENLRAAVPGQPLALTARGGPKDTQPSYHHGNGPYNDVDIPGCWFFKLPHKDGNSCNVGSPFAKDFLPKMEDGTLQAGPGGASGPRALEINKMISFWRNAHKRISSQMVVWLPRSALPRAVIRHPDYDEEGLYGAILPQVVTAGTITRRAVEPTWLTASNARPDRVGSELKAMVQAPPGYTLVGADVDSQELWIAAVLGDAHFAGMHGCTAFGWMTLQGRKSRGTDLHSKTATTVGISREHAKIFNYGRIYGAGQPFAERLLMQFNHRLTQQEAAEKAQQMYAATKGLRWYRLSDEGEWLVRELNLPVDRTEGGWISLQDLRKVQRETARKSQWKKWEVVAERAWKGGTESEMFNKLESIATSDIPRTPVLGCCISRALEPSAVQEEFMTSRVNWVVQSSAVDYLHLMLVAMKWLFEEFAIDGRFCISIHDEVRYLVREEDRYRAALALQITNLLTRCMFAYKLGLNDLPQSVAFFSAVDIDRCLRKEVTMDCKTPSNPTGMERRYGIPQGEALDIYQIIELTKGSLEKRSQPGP

Compound | EC50 (CVB-2; read-out: EC50 CVB-2) | EC50 (CVB-3) | EC50 (CVB-4) | EC50 (CVA-9) | EC50 (REO-1; read-out: EC50 REO-1) | CC50 [4] | CC50 [5] | CC50 (BHK) | EC50 (BVDV) | EC50 (YFV) | EC50 (DENV 2) | EC50 (WNV) | EC50 (CVB-2; read-out: CVB-2) | EC50 (Sb-1; read-out: Sb-1) | EC50 (REO-1; read-out: REO) | further results
Nc1ccn([C@H]2CC[C@@H](CO)O2)c(=O)n1 [ddC, zalcitabine, reference compound] |  |  |  |  |  |  |  |  |  |  |  |  |  |  |  | mtDNA/nuclear DNA (% of Control) (HepG2 cells [1]; 6 day treatment): 44.3 ± 9.3 % of Control; mtDNA/nuclear DNA (% of Control) (HepG2 cells [1]; 14 day treatment): 19.6 ± 8.2 % of Control; reduction of mitochondrial DNA content (HepG2 cells [1]; 6 days): 56%; reduction of mitochondrial DNA content (HepG2 cells [1]; 14 days): 80%; Incorporated drug amount, DNA (HepG2 cells [2]): 0.0055 pmole/μg DNA and 0.0055^b pmole/μg DNA; Incorporated drug amount, RNA (HepG2 cells [2]): 0.0013 pmole/μg RNA and 0.0013^b pmole/μg RNA; Electron Microscopy, Lipid Droplet Form. (HepG2 cells [3]): Positive; Electron Microscopy, Mito. Morphol. (HepG2 cells [3]): Loss of Cristae
C#C[C@@]1(O)[C@H](O)[C@@H](CO)O[C@H]1n1ccc(N)nc1=O [Compound I, β-D-2′-C-ethynyl-cytidine] | 33 µM | 33 µM | 24 µM | 59 µM | > 100 µM | ≥ 100 µM | > 100 µM | > 100 µM |  |  |  |  |  |  |  | EC50 (Sb-1; read-out: EC50 Sb-1): 26 µM
Nc1nc(N)c2ncn([C@@H]3O[C@H](CO)[C@@H](O)[C@H]3O)c2n1 [Compound J, β-D-2-amino-adenosine] | 53 µM | 55 µM | 50 µM | 53 µM | > 100 µM | 50 µM | > 100 µM | > 100 µM |  |  |  |  |  |  |  | EC50 (Sb-1; read-out: EC50 Sb-1): 40 µM
C[C@@]1(O)[C@H](O)[C@@H](CO)O[C@H]1n1cnc2c(NC3CC3)nc(N)nc21 [Compound K, β-D-2′-C-methyl-2-amino-6-cyclopropyl adenosine] |  |  |  |  |  | > 100 µM |  |  | 18 µM | 10 µM | 4.9 µM | 3.5 µM | > 100 µM | > 100 µM | 9.5 µM | 
C[C@@]1(O)[C@H](O)[C@@H](COP(=O)(O)OP(=O)(O)OP(=O)(O)O)O[C@H]1n1ccc(N)nc1=O [mCyd-TP, 2′-C-methyl-cytidine-5′-triphosphate] |  |  |  |  |  |  |  |  |  |  |  |  |  |  |  | IC50 (human DNA polymerase β): ≥ 883 µM; IC50 (human DNA polymerase γ): ≥ 929 µM
C[C@@]1(O)[C@H](O)[C@@H](CO)O[C@H]1n1cnc2c(Cl)nc(N)nc21 [Compound D, β-D-2′-C-methyl-6-chloro-guanosine] | 25 µM | 21 µM | 25 µM | 37 µM | 0.4 µM | > 100 µM | > 100 µM | 30 µM | 0.7 µM | 1 µM | 0.7 µM | 0.3 µM | 25 µM | 50 µM | 0.4 µM | EC50 (Sb-1; read-out: EC50 Sb-1): 50 µM
C[C@]1(CO)O[C@@H](n2cnc3c(N)ncnc32)[C@H](O)[C@@H]1O |  |  |  |  |  |  |  |  |  |  |  |  |  |  |  | melting point: 96 to 97 °C (dec.)
Cc1cn([C@H]2C[C@H](N=[N+]=[N-])[C@@H](CO)O2)c(=O)[nH]c1=O [ZDV, zidovudine] |  |  |  |  |  |  |  |  |  |  |  |  |  |  |  | Incorporated drug amount, DNA (HepG2 cells [2]): 0.103 pmole/μg DNA and 0.103 ± 0.0123^a pmole/μg DNA; Incorporated drug amount, RNA (HepG2 cells [2]): 0.0009 pmole/μg RNA and 0.0009 ± 0.0003^a pmole/μg RNA
Cc1cn([C@@H]2O[C@](C)(CO)[C@@H](O)[C@H]2O)c(=O)[nH]c1=O |  |  |  |  |  |  |  |  |  |  |  |  |  |  |  | melting point: 258 to 260 °C (dec.)
CC(C(=O)c1ccccc1)n1c(N)nc2c(ncn2[C@@H]2O[C@H](CO)[C@@H](O)[C@@]2(C)O)c1=O (stereo partly drawn) [Compound L, β-D-2′-C-methyl-1-(methyl-2-oxo-2-phenylethyl)guanosine] |  |  |  |  |  | > 100 µM |  |  | 12 µM | 6 µM | 4.4 µM | 3 µM | > 100 µM | > 100 µM | 12 µM | 
C[C@]1(CO)O[C@@H](n2ccc(=S)[nH]c2=O)[C@H](O)[C@@H]1O |  |  |  |  |  |  |  |  |  |  |  |  |  |  |  | melting point: 65 to 70 °C (dec.)
C[C@@]1(O)[C@H](O)[C@@H](CO)O[C@H]1n1cnc2c(N)nc(N)nc21 [Compound B, β-D-2′-C-methyl-2-amino adenosine] | 75 µM | 23 µM | 32 µM | 39 µM | 2 µM | > 100 µM | > 100 µM | 50 µM | 2.1 µM | 0.8 µM | 0.7 µM | 0.3 µM | 76 µM | 90 µM | 2 µM | EC50 (Sb-1; read-out: EC50 Sb-1): 90 µM
C[C@@]1(O)[C@H](O)[C@@H](CO)O[C@H]1n1cnc2c(=O)[nH]c(N)nc21 [Compound C, β-D-2′-C-methyl-guanosine] | 30 µM | 22 µM | 12 µM | 46 µM | 2 µM | > 100 µM | > 100 µM | 100 µM | 3.5 µM | 1.2 µM | 1.4 µM | 0.6 µM | 29 µM | 50 µM | 2 µM | 
C#C[C@@]1(O)[C@H](O)[C@@H](CO)O[C@H]1n1cnc2c(N)ncnc21 [Compound H, β-D-2′-C-ethynyl-adenosine] | 1.5 µM | 1 µM | 2 µM | 2.5 µM | 6 µM | 4.6 µM | 60 µM | 15 µM | 0.4 µM | 2 µM | 1.1 µM | 1 µM | 1.2 µM | 0.7 µM | 6 µM | 
C[C@@]1(O)[C@H](O)[C@@H](CO)O[C@H]1n1cnc2c(N)ncnc21 [Compound A, β-D-2′-C-methyl-adenosine] | 10 µM | 14 µM | 13 µM | 12 µM | > 70 µM | 4 µM | 80 µM | 70 µM | 1.2 µM | 2.7 µM | 2.7 µM | 3.6 µM | 7 µM |  | > 70 µM | 
CC(C)[C@H](N)C(=O)OC[C@H]1O[C@@H](n2cnc3c(=O)[nH]c(N)nc32)[C@](C)(O)[C@@H]1OC(=O)[C@@H](N)C(C)C [Compound E, 3′,5′-di-O-valinyl ester of β-D-2′-C-methyl-guanosine] | 33 µM | 30 µM | 35 µM | 40 µM | 2 µM | > 100 µM | > 100 µM | 100 µM | 4.9 µM | 1 µM | 1.4 µM | 1 µM | 33 µM | 55 µM | 2.1 µM | 
